Laboratory results: US8729053B2, “Nuclear factor kappa B pathway inhibitor composition and use of same” (The United States of America, as represented by the …, priority 2008, dated 2014)
Counter-ions that a name gives are not always drawn.

Assays:
JB6 cells (clone 41) = experiment: JB6 soft agar cell transformation assay; type: cell-based, mouse; conditions: for Transformation response to TPA: 10 days, TPA 10 ng/ml
Description: JB6 cells (clone 41) were used to assess the inhibitory activity of compound I using CytoSelect 96-well Cell Transformation Assay (Cell Biolabs, Huissen, Netherlands) as Soft Agar Assay according to manufacturer's instructions. Cells were incubated for 10 days in 0.4% agar medium over 0.6% agar containing TPA or TPA with compound I or DMSO as a control. To measure anchorage-independent growth, agar-layers were dissolved and lysed. 10 μl of the lysed solutions of each well were mixed with CyQuant and the fluorescence read by iQ5 with a FAM filter of 485/520 nm. As an alternative analysis, cell dose curves of JB6 cells were quantified by the End point using CyQuant to indicate relative anchorage-independent colony number.
(§1) In order to evaluate the potential therapeutic activity of the compound, tests for the biological activity of compound I were performed. The compound is non-toxic to MCF-7, T47D, and MDA-MB-231 breast cancer cells as estimated by XTT assay at 10 μM. To determine the effects of compound I on invasion by breast cancer cell lines, a matrigel invasion assay was used. The levels of phosphorylated IκBα were confirmed in TPA treated ER-positive (MCF-7 and T47D) and ER-negative (MDA-MB-231) breast cancer cell lines and compared the levels to those after pretreatment with compound I. Although induced levels of phosphorylated IκBα varied with the cell line, IκBα phosphorylation was eliminated by compound I treatment in all three breast cancer cell lines. Compound I also produced no effect on the estrogen receptor activity in the ER-positive breast cancer cells using ERE promoter luciferase reporter assay. Invasion capacity of breast cancer cells was increased by TPA stimulation compared to DMSO treated vehicle control. […] Following anchorage-independent colony induction in TPA-treated cells without or with compound I, colonies were lysed and measured with CyQuant GR Dye to detect DNA by fluorescence plate reader as a measure of colony count. Total transformed colony numbers were calculated from RFU and cell dose curve of JB6 cells. […]

cell proliferation = experiment: Cell proliferation; type: cell-based
estrogen receptor = experiment: ERE promoter luciferase reporter assay in ER-positive breast cancer cells; type: cell-based
Description: as §1

IKKα/β = experiment: Immunoblot of phosphorylated IKKα/β in HEK293 cells; type: cell-based
Description: (§2) To measure endogenous level of several proteins in response to TPA induction and compound I, HEK293 cells were lysed with RIPA buffer (10 mM Tris-HCl pH 7.5, 1 mM EDTA, 0.1% sodium dodecyl sulfate, 0.1% deoxycholate, and protease inhibitor). Whole cell extracts were subjected to immunoblot analysis with the following antibodies: p65 (F-6), p50 (E-10), p52 (C-5), RelB (C-19), IκBα (C-21), PCNA (F-2) were obtained from Santa Cruz Biotechnology (Santa Cruz, Calif.). IKKα, IKKβ, IKKγ, phospho-IκBα, phospho-IKKα/β, phospho-IKKγ, pohospho-Stat3 (Tyr 705 and Ser 727), phospho-p65 (Ser536 and Ser276), phospho-p44/42, phospho-JNKs were purchased from Cell Signaling (Danvers, Mass.), and α-tubulin from Sigma (St. Louis, Mo.). Nuclear and cytoplasmic extracts were prepared with HEK293 cells by NE-PER Nuclear and Cytoplasmic Extraction Reagents (Pierce Biotechnology, Rockford, Ill.) according to the manufacturer's protocol.
To characterize the activity of compound I in targeting events upstream of NFκB, endogenous levels of kinases involved in NFκB activation were examined by immunoblot analysis. The well-established upstream regulators of NFκB activation are IKKα, IKKβ, and IκBα. […] Moreover, the phosphorylation of IκBα was inhibited even at 1.1 μM showing dose-dependent decrease by compound I pretreatment. […]

IKKβ = biological target: T1, IKKβ (Homo sapiens, UniProt O14920); experiment: Off-chip incubation mobility-shift kinase assay, IKKβ; type: biochemical
T1 construct: purchased Calbiochem
T1 sequence (O14920 1-756): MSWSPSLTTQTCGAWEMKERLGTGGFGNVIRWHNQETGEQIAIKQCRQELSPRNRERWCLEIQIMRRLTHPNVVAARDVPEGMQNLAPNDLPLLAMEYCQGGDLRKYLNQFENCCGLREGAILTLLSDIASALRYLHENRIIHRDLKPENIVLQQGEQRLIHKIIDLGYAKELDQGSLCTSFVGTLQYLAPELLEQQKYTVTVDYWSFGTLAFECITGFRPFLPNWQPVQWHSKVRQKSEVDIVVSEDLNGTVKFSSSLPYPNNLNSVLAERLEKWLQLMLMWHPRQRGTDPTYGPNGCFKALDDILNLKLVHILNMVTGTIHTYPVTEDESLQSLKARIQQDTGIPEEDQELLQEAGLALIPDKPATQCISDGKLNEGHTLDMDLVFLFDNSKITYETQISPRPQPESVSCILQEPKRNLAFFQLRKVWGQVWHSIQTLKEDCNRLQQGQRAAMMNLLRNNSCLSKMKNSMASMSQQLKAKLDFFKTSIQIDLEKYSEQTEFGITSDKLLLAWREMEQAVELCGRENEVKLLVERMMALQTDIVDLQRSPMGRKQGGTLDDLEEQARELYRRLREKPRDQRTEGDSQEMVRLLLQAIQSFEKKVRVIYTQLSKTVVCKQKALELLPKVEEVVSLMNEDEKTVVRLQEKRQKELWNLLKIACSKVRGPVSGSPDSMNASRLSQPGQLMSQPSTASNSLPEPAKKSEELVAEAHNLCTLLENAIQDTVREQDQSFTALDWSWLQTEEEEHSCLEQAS
Description: In an attempt to determine whether compound I interferes with ATP binding to the catalytic site, the activity of compound I was measured with fully activated, phosphorylated IKKα or IKKβ. […] However, whether this compound interacts outside of the ATP binding pocket of IKK as an ATP non-competitive inhibitor similar to BMS-345541 is unknown. […] Luciferase activities with TPA induction alone were set at 100% and the relative activities with TPA in the presence of compounds are shown.

p65 = experiment: Immunoblot of phosphorylated p65; type: cell-based
Description: as §2

Binding to the ATP binding pocket of IKKβ (IKKβ): no activity
Inhibition of IKKβ activity, phosphorylation of a peptide substrate (IKKβ; fully activated, phosphorylated IKKβ, 1.25, 2.50, 5.00, and 10.00 μM): does not inhibit
Compound: Cc1cc(N)ccc1N=Nc1ccc(S(=O)(=O)CCOS(=O)(=O)O)cc1 [compound I, 2-(4-((4-amino-2-methylphenyl)diazenyl)phenylsulfonyl)ethyl hydrogen sulfate]
Tumor promoter induced transformation of JB6 cells (JB6 cells (clone 41)): inhibits
Transformation response to TPA (JB6 cells (clone 41); 1.1 μM): decreased
Transformation response to TPA (JB6 cells (clone 41); 17.0 μM to 2.1 μM): repressed to below vehicle control level
Suppression of cell proliferation (cell proliferation): does not suppress
Effect on estrogen receptor activity (estrogen receptor): no effect
TPA-induced phosphorylation of IKKα/β (IKKα/β; HEK293, compared with IκBα inhibition at 17.0 and 8.5 μM): reduces
TNFα-induced phosphorylation of IKKα/β (IKKα/β; at 1 hour): inhibits
Phosphorylation of p65 at Ser536 (p65): inhibited
Phosphorylation of p65 at Ser536 and Ser276 (p65; FIG. 7): decreased
